Drawing on ChEMBL document CHEMBL1240511, “Design, synthesis, and in vitro pharmacology of new radiolabeled gamma-hydroxybutyric acid analogues including photolabile analogues with irreversible binding to the high-affinity gamma-hydroxybutyric acid binding sites” (J Med Chem, 2010), this text covers Ki and Activity for three compounds.

pKi: −log10 of the molar value. Activity calls are given as the source filed them. No cut-off for these calls is given here.

The nature of experiment [1]: Displacement of [3H]NCS-382 from GABAB receptor gamma-hydroxybutyric acid binding site in rat cerebral cortex synaptic membranes after 1 hr by liquid scintillation counting. The class given is cell membranes, Membrane. (Loss of bound radioactivity is the signal in a displacement assay; it reports binding, not function.)
Experiment [2] is filed under the species Rattus norvegicus. Description: Binding affinity to GABAB receptor gamma-hydroxybutyric acid binding site in UV irradiated rat cerebral cortex synaptic membranes assessed as covalent binding at 100 nM after 1 hr by gamma-hydroxybutyric acid displacement assay. It is filed as tissue-based. The settings on record: tested as the 125I-labelled form.

Compound `[N-]=[N+]=Nc1ccc(COc2ccc(C(O)CCC(=O)O)cc2)cc1I` (centres undefined) gave a negative-log Ki (pKi) in experiment [1] of 6.73.

For the compound `[N-]=[N+]=Nc1ccc(I)cc1COc1ccc(C(O)CCC(=O)O)cc1` (centres undefined), the negative logarithm of the Ki (pKi) in experiment [1] is 6.92. The result in experiment [2] was Active.

In turn, `O=C(O)CCC(O)c1ccc(OCc2cccc(I)c2)cc1` (centres undefined) had a negative-log Ki (pKi) in experiment [1] of 7.12.

What is called pKi is the Ki on a negative log10 scale, so that one unit is a factor of ten. Lower therefore signals a large Ki.
